# Assay results from patent publication US20130022620A1, “ASSAYS AND METHODS PERTAINING TO PRE-AMYLOID INTERMEDIATES” (priority 2011, published 2013).
# Positions of bridges follow the written chain, without caps; N, C: chain ends. No end group written: not given here.
# Key:
# [1] = tested on: rat INS-1 β-cells; assay: AlamarBlue cell viability assay of β-cells; type: cell-based; settings: for onset and duration of toxicity compared to wild type: side-by-side with kinetics, 20 uM for the Ser-20 mutants
# Procedure: Transformed rat insulinoma-1 (INS-1) β-cells (which express RAGE) are a pancreatic beta cell line commonly used for studies of h-IAPP induced toxicity. INS-1 cells were grown in RPMI 1640 supplemented with 10% fetal bovine serum (FBS), 11 mM glucose, 10 mM Hepes, 2 mM L-glutamine, 1 mM sodium pyruvate, 50 μM β-mercaptoethanol, 100 U/ml penicillin, and […] streptomycin. Cells were maintained at 37° C./5% CO2.
# Cyto-toxicity was measured by AlamarBlue assay. INS-1 β-cells were seeded at a density of 30,000 cells per well in 96-well plates and cultured for 24 hours prior to stimulation with IAPP. Human and rat IAPP were dissolved and incubated in 16 mM tris HCl (pH 7.4, 25° C.) prior to cell stimulation. AlamarBlue was diluted ten-fold in culture media and cells were incubated for 5 hours at 37° C. Fluorescence (excitation 530; emission 590 nm) was measured on a Beckman Coulter DTX880 fluorescent plate reader. Values calculated were relative to those of control cells treated with buffer only. All values represent means±SEM (n=3).
# Changes in cell morphology were examined by light microscopy to provide a second method of evaluating cell viability. Transformed rat INS-1 beta cells were photographed immediately prior to assessment of toxicity by Alamar blue cell viability assays. Images were taken using an Olympus BX-61 light microscope.
# [2] = Thioflavin-T kinetics and TEM of amyloid formation by IAPP peptides; type: physicochemical
# Procedure: Thioflavin-T fluorescence was used to monitor the time course of h-IAPP amyloid formation in the presence and absence of sRAGE. To identify which form(s) of h-IAPP interact with RAGE, sRAGE was added to h-IAPP at various time points during the h-IAPP amyloid formation reaction. Aliquots of the reaction mixture were analyzed by adding 100 uL aliquots of the amyloid formation reaction to 96-well plates containing 8 uL of 60 uM thioflavin-T solution at various incubation times after initiation of the amyloid formation reaction. Fluorescence was measured using a Beckman Coulter DTX880 fluorescent plate reader (excitation: 445 nm and emission: 485 nm). Final solution conditions contained 16 mM tris HCl and […] thioflavin-T (pH 7.4). […] All values represent means±SEM (n=3).
# Transient kinetic species of h-IAPP were characterized by TEM. TEM images confirm the presence or absence of amyloid which were indicated by thioflavin-T fluorescence. Aliquots (4 μl) were removed from the reaction mixtures monitored by thioflavin-T assays, placed on a carbon-coated 200-mesh copper grid and negatively stained with saturated uranyl acetate. The samples were imaged with a Philips CM12 transmission electron microscope at the New York University electron microscopy core facility. Final solution conditions contained 16 mM tris HCl (pH 7.4).
# [3] = tested on: MCP-1 and IL-1β mRNA expression; assay: qRT-PCR of MCP-1 and IL-1β mRNA in β-cells; type: cell-based, rat; settings: β-cells stimulated with peptide
# Procedure: (§1) Assays for qRT-PCR were carried out in 6-well plates. Total cellular RNA was isolated from h-IAPP stimulated β-cells using Qiagen RNA isolation kit, and the quality of RNA samples was determined by measurement of 260:280 ratio. Only samples with a 260:280 ratio of 2.0 or higher were used for reverse transcription. RNA samples were also treated by RNAse-free DNAse to avoid genomic DNA contamination. One microgram of RNA from each sample was reverse-transcribed to cDNA using MCP-1 and IL-1β primers. Non-template negative controls were also performed to monitor non-specific reactions. RNA isolated from rat IAPP and non-h-IAPP treated beta cells were used as negative controls. Equal amounts of RNA were used in each qRT-PCR reaction, and 18S was used as the internal control for amplification at the same time. qRT-PCR reactions were carried out using an Applied Biosystems 7500 RealTime PCR machine. The relative mRNA contents were normalized using 18S and quantification was carried out using qRT-PCR Quantifier Software.
# [4] = tested on: MCP-1 and IL-1β mRNA expression; assay: qRT-PCR of MCP-1 and IL-1β mRNA in smooth muscle cells; type: cell-based, mouse; settings: peptide stimulation
# Procedure: Mouse vascular SMCs were cultured from the aortas of 10-week-old male mice using a modification of the procedure of Tarvo and Barret. See Tarvo et al. Blood Vessels. 1980; 17:110-116. SMCs were cultured following an explant protocol in accordance with institutional guidelines. Cultures were composed of 95% SM-α-actin positivity based on immunostaining.
# as §1
# [5] = molecular target: T1, sRAGE (Homo sapiens, UniProt Q15109); assay: Tryptophan fluorescence quenching assay of sRAGE binding; settings: sRAGE added at different time points of the reaction, 1:1 molar ratio
# T1 construct: the soluble extracellular domain of RAGE (sRAGE); made in house; host or cells: Sf9 insect cells (baculovirus)
# From the text: The quenching of tryptophan fluorescence indicates binding. Fluorescence measurements were made at right angle in a […] dual path length quartz cuvette, using a Photon Technology International fluorescent spectrometer (280 nm excitation and 350 nm emission). Background fluorescence from buffer and IAPP peptides were negligible. The fluorescence quantum yield reported for each time point is an average of 20 reads over 20 seconds (2.5 nm bandwidth and 1 second integration time). Final solution conditions contained 16 mM tris HCl (pH 7.4).
# [6] = molecular target: T1, sRAGE; assay: Difference CD of IAPP peptides with sRAGE; type: binding; settings: end point of the reactions
# Procedure: CD measurements of IAPP, sRAGE and IAPP/sRAGE reactions were taken at various incubation times. Far-UV CD experiments monitor the development of secondary structure of h-IAPP species and give insight into the conformational requirement for IAPP/RAGE-binding. All CD experiments were performed on an Applied Photophysics circular dichroism spectrophotometer by directly transferring 300 μL of peptide solution from kinetic assays into a 0.1 cm quartz cuvette a few minutes prior to data collection. The CD spectra for sRAGE and tris HCl buffer was subtracted from all RAGE/IAPP mixtures. The final far-UV CD data was collected over the range of 190 to 260 nm. Final solution conditions contained 16 mM tris HCl (pH 7.4).
# [7] = molecular target: T2, soluble RAGE (sRAGE), soluble extracellular domain of the receptor for advanced glycation endproducts (human, UniProt Q15109 23-342, glycosylated (heterogeneity in GlcN and GlcNAc glycosylation by MALDI-TOF)); assay: tryptophan fluorescence quenching; sRAGE added at different time points of the aggregation reaction
# T2 construct: The purification protocol gives two species, full length (36,254 Da) and C-truncated (34,710 Da); also called human sRAGE
# [8] = molecular target: T2, soluble RAGE (sRAGE), soluble …; assay: tryptophan fluorescence quenching
# From the text: (E) Trp fluorescence quenching experiments.
# Binding of ligands to this region should alter the environment of the tryptophans and lead to a change in their fluorescent quantum yield. Thus, the quenching of tryptophan fluorescence can be used to monitor binding.
# T2 sequence (Q15109 23-342): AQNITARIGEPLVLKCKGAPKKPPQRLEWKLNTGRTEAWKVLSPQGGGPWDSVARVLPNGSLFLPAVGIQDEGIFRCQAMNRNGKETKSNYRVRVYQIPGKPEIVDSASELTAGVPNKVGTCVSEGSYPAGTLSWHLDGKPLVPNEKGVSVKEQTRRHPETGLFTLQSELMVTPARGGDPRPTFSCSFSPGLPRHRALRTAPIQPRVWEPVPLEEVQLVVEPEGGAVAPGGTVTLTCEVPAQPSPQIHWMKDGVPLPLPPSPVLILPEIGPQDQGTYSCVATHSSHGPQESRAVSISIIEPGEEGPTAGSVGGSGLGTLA
# T1 sequence (Q15109 23-342): as above
molecule,measurement,setting,value
"3×L-IAPP: h-IAPP triple mutant in which leucines replaced F15, F23 and Y37 (KCNTATCATQRLANLLVHSSNNLGAILSSTNVGSNTL-NH2; disulfide 2-7; N-terminus assumed; SMILES CC[C@H](C)[C@H](NC(=O)[C@H](C)NC(=O)CNC(=O)[C@H](CC(C)C)NC(=O)[C@H](CC(N)=O)NC(=O)[C@H](CC(N)=O)NC(=O)[C@H](CO)NC(=O)[C@H](CO)NC(=O)[C@H](Cc1c[nH]cn1)NC(=O)[C@@H](NC(=O)[C@H](CC(C)C)NC(=O)[C@H](CC(C)C)NC(=O)[C@H](CC(N)=O)NC(=O)[C@H](C)NC(=O)[C@H](CC(C)C)NC(=O)[C@H](CCCNC(=N)N)NC(=O)[C@H](CCC(N)=O)NC(=O)[C@@H](NC(=O)[C@H](C)NC(=O)[C@@H]1CSSC[C@H](NC(=O)[C@@H](N)CCCCN)C(=O)N[C@@H](CC(N)=O)C(=O)N[C@@H]([C@@H](C)O)C(=O)N[C@@H](C)C(=O)N[C@@H]([C@@H](C)O)C(=O)N1)[C@@H](C)O)C(C)C)C(=O)N[C@@H](CC(C)C)C(=O)N[C@@H](CO)C(=O)N[C@@H](CO)C(=O)N[C@H](C(=O)N[C@@H](CC(N)=O)C(=O)N[C@H](C(=O)NCC(=O)N[C@@H](CO)C(=O)N[C@@H](CC(N)=O)C(=O)N[C@H](C(=O)N[C@@H](CC(C)C)C(N)=O)[C@@H](C)O)C(C)C)[C@@H](C)O; UniProt P10997 34-70, looked up, variant F15L F23L Y37L)",onset and duration of toxicity compared to wild type,[1],longer duration of toxicity than observed with wild type
same,"amyloid formation, slower than wild type","[2]; triple mutant, leucines at positions 15, 23 and 37",6 fold
"S20K-IAPP: h-IAPP with Ser-20 substituted by lysine (KCNTATCATQRLANFLVHSKNNFGAILSSTNVGSNTY-NH2; disulfide 2-7; N-terminus assumed; SMILES CC[C@H](C)[C@H](NC(=O)[C@H](C)NC(=O)CNC(=O)[C@H](Cc1ccccc1)NC(=O)[C@H](CC(N)=O)NC(=O)[C@H](CC(N)=O)NC(=O)[C@H](CCCCN)NC(=O)[C@H](CO)NC(=O)[C@H](Cc1c[nH]cn1)NC(=O)[C@@H](NC(=O)[C@H](CC(C)C)NC(=O)[C@H](Cc1ccccc1)NC(=O)[C@H](CC(N)=O)NC(=O)[C@H](C)NC(=O)[C@H](CC(C)C)NC(=O)[C@H](CCCNC(=N)N)NC(=O)[C@H](CCC(N)=O)NC(=O)[C@@H](NC(=O)[C@H](C)NC(=O)[C@@H]1CSSC[C@H](NC(=O)[C@@H](N)CCCCN)C(=O)N[C@@H](CC(N)=O)C(=O)N[C@@H]([C@@H](C)O)C(=O)N[C@@H](C)C(=O)N[C@@H]([C@@H](C)O)C(=O)N1)[C@@H](C)O)C(C)C)C(=O)N[C@@H](CC(C)C)C(=O)N[C@@H](CO)C(=O)N[C@@H](CO)C(=O)N[C@H](C(=O)N[C@@H](CC(N)=O)C(=O)N[C@H](C(=O)NCC(=O)N[C@@H](CO)C(=O)N[C@@H](CC(N)=O)C(=O)N[C@H](C(=O)N[C@@H](Cc1ccc(O)cc1)C(N)=O)[C@@H](C)O)C(C)C)[C@@H](C)O; UniProt P10997 34-70, looked up, variant S20K)",onset and duration of toxicity compared to wild type,[1],shifts the onset of toxicity to later time points and increases its duration
same,rate of aggregation compared to wild type,"[2]; 20 uM, pH 7.4 25° C.",slower aggregation rate
"rat IAPP: non-amyloidogenic, non-toxic rat IAPP used as negative control","cell toxicity (AlamarBlue cell viability, light microscopy)","[1]; peptide incubated in buffer at room temperature for various times, then applied to INS-1 β-cells",No toxicity was observed at any time point
same,MCP-1 and IL-1β mRNA expression,[3],does not induce up-regulation
same,MCP-1 and IL-1β mRNA expression in smooth muscle cells,[4],rat IAPP does not
same,binding to sRAGE (tryptophan fluorescence quenching),[5],No binding
same,amyloid formation (thioflavin-T),[2]; peptide by itself,does not form amyloid at any time point
same,interaction with sRAGE (difference CD),[6],does not interact
"KCNTATCATQRLANFLVHSSNNFGAPLSSTNVGSNTY-NH2 (disulfide 2-7; N-terminus assumed; SMILES CC(C)C[C@H](NC(=O)[C@H](CCCNC(=N)N)NC(=O)[C@H](CCC(N)=O)NC(=O)[C@@H](NC(=O)[C@H](C)NC(=O)[C@@H]1CSSC[C@H](NC(=O)[C@@H](N)CCCCN)C(=O)N[C@@H](CC(N)=O)C(=O)N[C@@H]([C@@H](C)O)C(=O)N[C@@H](C)C(=O)N[C@@H]([C@@H](C)O)C(=O)N1)[C@@H](C)O)C(=O)N[C@@H](C)C(=O)N[C@@H](CC(N)=O)C(=O)N[C@@H](Cc1ccccc1)C(=O)N[C@@H](CC(C)C)C(=O)N[C@H](C(=O)N[C@@H](Cc1c[nH]cn1)C(=O)N[C@@H](CO)C(=O)N[C@@H](CO)C(=O)N[C@@H](CC(N)=O)C(=O)N[C@@H](CC(N)=O)C(=O)N[C@@H](Cc1ccccc1)C(=O)NCC(=O)N[C@@H](C)C(=O)N1CCC[C@H]1C(=O)N[C@@H](CC(C)C)C(=O)N[C@@H](CO)C(=O)N[C@@H](CO)C(=O)N[C@H](C(=O)N[C@@H](CC(N)=O)C(=O)N[C@H](C(=O)NCC(=O)N[C@@H](CO)C(=O)N[C@@H](CC(N)=O)C(=O)N[C@H](C(=O)N[C@@H](Cc1ccc(O)cc1)C(N)=O)[C@@H](C)O)C(C)C)[C@@H](C)O)C(C)C, also called nontoxic, aggregation-prone I26P-IAPP variant of h-IAPP) [I26P-IAPP (I26P point mutant of human IAPP)]",binding result,[7],no binding
"KCNTATCATQRLANFLVRSSNNLGPVLPPTNVGSNTY-NH2 (peptide, UniProt P12969 38-74, looked up, disulfide 2-7, mature; also called non-toxic rat IAPP; non-amyloidogenic rat IAPP) [rat IAPP]",binding result,[8],"no binding (tested: 20 µM rat IAPP, 1:1 molar ratio)"
